Experiments:
[1] = target: T1, KRAS-WT and SOS1 proteins (Homo sapiens, UniProt Q07889); experiment: KRAS-WT/SOS1 binding assay (HTRF); settings: Tag1-SOS1 / Tag2-KRAS-WT, 10 μM GTP, read-out: Activity Data in Kras: SOS1 Assay, Wild Type
T1 construct: purchased Cisbio 63ADK000CB15PEG
T1 sequence (Q07889 1-1333): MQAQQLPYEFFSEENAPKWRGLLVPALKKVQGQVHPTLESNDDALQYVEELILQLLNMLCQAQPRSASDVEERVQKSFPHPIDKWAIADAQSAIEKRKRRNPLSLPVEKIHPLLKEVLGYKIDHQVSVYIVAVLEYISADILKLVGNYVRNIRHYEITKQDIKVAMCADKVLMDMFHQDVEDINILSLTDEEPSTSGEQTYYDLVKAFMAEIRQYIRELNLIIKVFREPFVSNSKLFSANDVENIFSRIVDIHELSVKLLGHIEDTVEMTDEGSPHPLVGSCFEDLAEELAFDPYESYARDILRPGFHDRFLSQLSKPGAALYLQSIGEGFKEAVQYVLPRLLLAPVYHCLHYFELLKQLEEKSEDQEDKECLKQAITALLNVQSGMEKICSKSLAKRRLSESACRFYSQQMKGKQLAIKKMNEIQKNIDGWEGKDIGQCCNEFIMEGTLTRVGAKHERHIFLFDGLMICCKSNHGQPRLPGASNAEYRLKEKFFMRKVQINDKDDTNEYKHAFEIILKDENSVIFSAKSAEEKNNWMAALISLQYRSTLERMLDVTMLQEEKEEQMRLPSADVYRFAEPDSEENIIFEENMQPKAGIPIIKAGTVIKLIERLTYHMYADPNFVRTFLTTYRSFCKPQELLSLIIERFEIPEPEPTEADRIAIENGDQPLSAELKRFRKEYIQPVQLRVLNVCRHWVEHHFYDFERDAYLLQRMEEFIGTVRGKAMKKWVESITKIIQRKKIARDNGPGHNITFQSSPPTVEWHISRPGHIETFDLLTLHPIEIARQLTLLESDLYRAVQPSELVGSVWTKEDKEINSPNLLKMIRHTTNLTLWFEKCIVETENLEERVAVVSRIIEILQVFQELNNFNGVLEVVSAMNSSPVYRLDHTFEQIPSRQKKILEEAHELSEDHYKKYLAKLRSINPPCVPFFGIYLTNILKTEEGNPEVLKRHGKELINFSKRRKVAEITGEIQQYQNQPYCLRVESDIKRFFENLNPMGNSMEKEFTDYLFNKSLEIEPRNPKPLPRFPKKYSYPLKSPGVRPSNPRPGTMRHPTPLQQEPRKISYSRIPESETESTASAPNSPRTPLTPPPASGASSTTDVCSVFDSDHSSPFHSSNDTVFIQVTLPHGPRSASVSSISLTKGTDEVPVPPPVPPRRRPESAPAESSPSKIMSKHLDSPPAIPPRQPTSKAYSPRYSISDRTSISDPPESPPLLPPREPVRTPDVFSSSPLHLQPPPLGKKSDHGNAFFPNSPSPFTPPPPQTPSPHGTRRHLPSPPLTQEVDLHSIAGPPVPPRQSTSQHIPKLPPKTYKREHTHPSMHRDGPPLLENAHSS
Description: (§1) KRAS-WT (or G12C/G12D/G12V)/SOS1 Binding Assay
(§2) Low IC50 values are indicative of high potency of the SOS1 inhibitor compounds in this assay setting.
(§3) The KRAS-WT (or G12C/G12D/G12V)/SOS1 binding assay is performed using an assay kit (Cisbio, Cat #63ADK000CB15PEG or 63ADK000CB16PEG/63ADK000CB17PEG/63ADK000CB18PEG) according to the procedure recommended by the manufacturer. • 1) Thaw and prepare the working solution of Tag1-SOS1 protein and Tag2-KRAS-WT (or G12C/G12D/G12V) protein with final concentration of 10 μM GTP (Sigma, Cat #V900868). • 2) Thaw and prepare the working solution of anti-Tag1-Tb^3+ anti-Tag2-XL665. • 3) Dispense 2 μL of serially diluted compound, 4 μL of Tag1-SOS1 protein and 4 μL of Tag2-KRAS-WT (or G12C/G12D/G12V) protein with GTP into a ProxiPlate-384 Plus, white 384-shallow well microplate (PerkinElmer, Cat #6008280). • 4) Incubate the plate for 15 minutes at room temperature. • 5) Dispense 10 μL of pre-mixed anti-Tag1-Tb^3+ and anti-Tag2-XL665 into the plate. • 6) Seal the plate and incubate for 2 hours at room temperature. • 7) Remove the plate sealer and read on PHERAstar FS (BMG LABTECH, PHERAstar FS). • 8) Calculate the ratio of the acceptor and donor emission signals for each individual well using the following equation.
(§4) [formula] • 9) IC50 values are fitted and calculated by HTRF signal values and log of compound concentrations to nonlinear regression [Log (inhibitor) vs. Response−Variable Slope (four parameters)] using the GraphPad Prism 8.0.

[2] = target: T2, KRAS G12D and SOS1 proteins (Homo sapiens, UniProt Q07889); experiment: KRAS-G12D/SOS1 binding assay (HTRF); settings: Tag1-SOS1 / Tag2-KRAS G12D, 10 μM GTP
T2 construct: purchased Cisbio 63ADK000CB17PEG
T2 sequence (Q07889 1-1333): T1 sequence (Q07889 1-1333)
Description: as §1, §2, §3, §4

| SMILES | IC50 [1] [nM] | IC50 [2] [nM] |
| --- | --- | --- |
| Cc1nc(N[C@H](C)c2cccc3c2CCC3(F)F)c2cc(N3CCOCC3)c3nncn3c2n1 [Example 23, N-[(1R)-1-(1,1-difluoro-2,3-dihydro-1H-inden-4-yl)ethyl]-12-methyl-7-(morpholin-4-yl)-2,4,5,11,13-pentaazatricyclo[7.4.0.0^{2,6}]trideca-1(9),3,5,7,10,12-hexaen-10-amine] | < 100 | < 100 |
| Cc1nc(N[C@H](C)c2cccc(C(F)(F)CO)c2)c2cc(-c3ccc(=O)n(C)c3)c3c(cnn3C)c2n1 [Example 24, (R)-5-(4-((1-(3-(1,1-difluoro-2-hydroxyethyl)phenyl)ethyl)amino)-2,7-dimethyl-7H-pyrazolo[3,4-h]quinazolin-6-yl)-1-methylpyridin-2(1H)-one] | < 100 | < 100 |
| Cc1nc(N[C@H](C)c2cccc3c2CCC3(F)F)c2cc(-c3ccc(=O)n(C)c3)c3c(cnn3C)c2n1 [Example 25, (R)-5-(4-((1-(1,1-difluoro-2,3-dihydro-1H-inden-4-yl)ethyl)amino)-2,7-dimethyl-7H-pyrazolo[3,4-h]quinazolin-6-yl)-1-methylpyridin-2(1H)-one] | < 100 | < 100 |
| Cc1nc(N[C@H](C)c2cc(C(C)(C)O)cc(C(F)(F)F)c2)c2cc(-c3ccc(=O)n(C)c3)c3c(cnn3C)c2n1 [Example 26, (R)-5-(4-((1-(3-(2-hydroxypropan-2-yl)-5-(trifluoromethyl)phenyl)ethyl)amino)-2,7-dimethyl-7H-pyrazolo[3,4-h]quinazolin-6-yl)-1-methylpyridin-2(1H)-one] | > 5000 | > 5000 |
| Cc1nc(N[C@H](C)c2cccc(C(F)(F)CO)c2)c2cc(-c3ccc(=O)n(C)c3)c3[nH]ncc3c2n1 [Example 27, (R)-5-(4-((1-(3-(1,1-difluoro-2-hydroxyethyl)phenyl)ethyl)amino)-2-methyl-7H-pyrazolo[3,4-h]quinazolin-6-yl)-1-methylpyridin-2(1H)-one] | < 100 | < 100 |
| Cc1nc(N[C@H](C)c2cccc(C(F)(F)CO)c2)c2cc(-c3ccc(=O)[nH]c3)c3[nH]ncc3c2n1 [Example 28, (R)-5-(4-((1-(3-(1,1-difluoro-2-hydroxyethyl)phenyl)ethyl)amino)-2-methyl-7H-pyrazolo[3,4-h]quinazolin-6-yl)pyridin-2(1H)-one] | < 100 | < 100 |
| Cc1nc(N[C@H](C)c2cccc(C(F)(F)CO)c2)c2cc(-c3ccc(=O)[nH]c3)c3c(cnn3C)c2n1 [Example 29, (R)-5-(4-((1-(3-(1,1-difluoro-2-hydroxyethyl)phenyl)ethyl)amino)-2,7-dimethyl-7H-pyrazolo[3,4-h]quinazolin-6-yl)pyridin-2(1H)-one] | < 100 | < 100 |
| Cc1nc(N[C@H](C)c2cccc(C(F)(F)CO)c2)c2cc(C3CCN(C)CC3)c3c(cnn3C)c2n1 [Example 30, (R)-2-(3-(1-((2,7-dimethyl-6-(1-methylpiperidin-4-y1)-7H-pyrazolo[3,4-h]quinazolin-4-yl)amino)ethyl)phenyl)-2,2-difluoroethan-1-ol] | < 100 | < 100 |
| COCC(F)(F)c1cccc([C@@H](C)Nc2nc(C)nc3c2cc(-c2ccc(=O)n(C)c2)c2c3cnn2C)c1 [Example 31, (R)-5-(4-((1-(3-(1,1-difluoro-2-methoxyethyl)phenyl)ethyl)amino)-2,7-dimethyl-7H-pyrazolo[3,4-h]quinazolin-6-yl)-1-methylpyridin-2(1H)-one] | < 100 | < 100 |
| C[C@@H](Nc1nc(C(F)(F)F)nc2c1cc(-c1ccc(=O)n(C)c1)c1c2cnn1C)c1cccc(C(F)(F)CO)c1 [Example 32, (R)-5-(4-((1-(3-(1,1-difluoro-2-hydroxyethyl)phenyl)ethyl)amino)-7-methyl-2-(trifluoromethyl)-7H-pyrazolo[3,4-h]quinazolin-6-yl)-1-methylpyridin-2(1H)-one] | 100 to 500 | 100 to 500 |
| C[C@@H](Nc1nc(C(F)(F)F)nc2c1cc(-c1ccc(=O)n(C)c1)c1c2cnn1C)c1cc(F)cc(C(F)(F)CO)c1 [Example 33, (R)-5-(4-((1-(3-(1,1-difluoro-2-hydroxyethyl)-5-fluorophenyl)ethyl)amino)-7-methyl-2-(trifluoromethyl)-7H-pyrazolo[3,4-h]quinazolin-6-yl)-1-methylpyridin-2(1H)-one] | 100 to 500 | 100 to 500 |
| Cc1nc(N[C@H](C)c2cccc(C(F)(F)CO)c2)c2cc(-c3ccc(=O)n(C)c3)c3nn(C(F)(F)F)cc3c2n1 [Example 34, 5-(4-{[(1R)-1-[3-(1,1-difluoro-2-hydroxyethyl)phenyl]ethyl]amino}-2-methyl-8-(trifluoromethyl)-8H-pyrazolo[3,4-h]quinazolin-6-yl)-1-methyl-1,2-dihydropyridin-2-one] | 100 to 500 | 100 to 500 |
| Cc1nc(N[C@H](C)c2cccc(C(F)(F)F)c2)c2cc(OC3CCOC3)c3c(cnn3C)c2n1 (stereo partly drawn) [Example 35, 2,7-dimethyl-6-(oxolan-3-yloxy)-N-[(1R)-1-[3-(trifluoromethyl)phenyl]ethyl]-7H-pyrazolo[3,4-h]quinazolin-4-amine] | 100 to 500 | 100 to 500 |
| Cc1nc(N[C@H](C)c2cccc3c2CCC3(F)F)c2cc(O[C@H]3CCOC3)c3c(cnn3C)c2n1 [Example 36, N-((R)-1-(1,1-difluoro-2,3-dihydro-1H-inden-4-yl)ethyl)-2,7-dimethyl-6-(((S)-tetrahydrofuran-3-yl)oxy)-7H-pyrazolo[3,4-h]quinazolin-4-amine] | < 100 | < 100 |
| Cc1nc(N[C@H](C)c2cc(N)cc(C(F)(F)F)c2)c2cc(O[C@H]3CCOC3)c3c(cnn3C)c2n1 [Example 37, N-((R)-1-(3-amino-5-(trifluoromethyl)phenyl)ethyl)-2,7-dimethyl-6-(((S)-tetrahydrofuran-3-yl)oxy)-7H-pyrazolo[3,4-h]quinazolin-4-amine] | < 100 | < 100 |
| Cc1nc(N[C@H](C)c2cccc(C(F)(F)CO)c2)c2cc(O[C@H]3CCOC3)c3c(cnn3C)c2n1 [Example 38, 2-(3-((R)-1-((2,7-dimethyl-6-(((S)-tetrahydrofuran-3-yl)oxy)-7H-pyrazolo[3,4-h]quinazolin-4-yl)amino)ethyl)phenyl)-2,2-difluoroethan-1-ol] | < 100 | < 100 |
| Cc1nc(N[C@H](C)c2cccc(C(F)(F)CO)c2)c2cc(OC3CC(F)(F)C3)c3c(cnn3C)c2n1 [Example 39, (R)-2-(3-(1-((6-(3,3-difluorocyclobutoxy)-2,7-dimethyl-7H-pyrazolo[3,4-h]quinazolin-4-yl)amino)ethyl)phenyl)-2,2-difluoroethan-1-ol] | 100 to 500 | 100 to 500 |
